{"source": "patent US20090124657A1", "about": "“PHARMACEUTICAL COMPOSITIONS COMPRISING MONTELUKAST” (priority 2007, published 2009)", "experiment": "Susceptibility of montelukast sodium to degradation", "format": "physicochemical", "data": [{"smiles": "CC(C)(O)c1ccccc1CC[C@@H](SCC1(CC(=O)O)CC1)c1cccc(/C=C/c2ccc3ccc(Cl)cc3n2)c1", "note": "[Montelukast sodium, [R-(E)]-1-[[[1-[3-[2-(7-chloro-2-quinolinyl)ethenyl]phenyl]-3-[2-(1-hydroxy-1-methylethyl)phenyl]propyl]thio]methyl]cyclopropaneacetic acid]", "values": [{"measurement": "Susceptibility to oxidative degradation (including atmospheric oxygen)", "setting": "significant increase in mok-3 sulfoxide impurity", "result": "highly susceptible"}, {"measurement": "Susceptibility to acid hydrolysis", "setting": "significant increase in styrene impurity", "result": "highly susceptible"}]}]}
